Measured values published in patent EP0241804A2, “Preserved antacid preparations” (BAYER AG, priority 1986, dated 1987).

Test system: Testmikroorganismen
Test: Preservative challenge test (BP 1980 / USP XXI) of antacid preparations
Format: cell-based
Details: for Ergebnisse von Konservierungstests: Hydrotalcitsuspensionen with the preservative added at various concentrations (Tabelle 2); for Vermehrung von Bakterien und Hefen: Hydrotalcitsuspensionen, also at high preservative concentrations
Excerpt: Der Nachweis der einwandfreien Haltbarmachung von Antacida-Zubereitungen erfolgte mit Hilfe geeigneter Konservierungsbelastungstests wie sie z.B. in der Britischen Pharmakopöe von 198O (British Pharmacopoeia 198O, Addendum 1982, Revised Apendix XVIC: Efficacy of Antimicrobial Preservatives in Pharmaceutical Products) oder der Pharmakopöe der Vereinigten Staaten (The United States Pharmacopeia XXI (1985) Antimicrobial Preservatives Effectiveness,S. 1151-1156) beschrieben werden.
Neben einer Richtlinie der WHO für nichtsterile Produkte, die eine Begrenzung des Keimgehalts in nichtsterilen oralen Arzneimitteln auf 1OOO/ml fordert, gelten unterschiedlich hohe Anforderungen hinsichtlich der Abtötungsrate für bestimmte Testmikroorganismen, je nach Pharmakopöe. Die britische Pharmakopöe verlangt z.B. eine Verminderung der Bakterienkonzentration um 2 Zehnerpotenzen innerhalb von 7 Tagen sowie keine Vermehrung von Hefen und Schimmelpilzen (s. Tab. 1).

## O=C(O)c1ccccc1 [Benzoesäure]
  Ergebnisse von Konservierungstests: unwirksam
  Vermehrung von Bakterien und Hefen: Vermehrung von Bakterien und Hefen

## N=C(NCCCCCCNC(=N)NC(=N)Nc1ccc(Cl)cc1)NC(=N)Nc1ccc(Cl)cc1 [Chlorhexidin]
  Ergebnisse von Konservierungstests: unwirksam

## C=CCc1ccc(O)c(OC)c1 [Eugenol, 2-Methoxy-4-(2-propenyl)phenol]
  Ergebnisse von Konservierungstests: gut konserviert

## C/C=C/C=C/C(=O)O [Sorbinsäure]
  Ergebnisse von Konservierungstests: unwirksam
  Vermehrung von Bakterien und Hefen: Vermehrung von Bakterien und Hefen

## Cc1ccc(C(C)C)c(O)c1 [Thymol, 5-Methyl-2-(1-methylethyl)phenol]
  Ergebnisse von Konservierungstests: gut konserviert

## O=CC=Cc1ccccc1 [Zimtaldehyd, 3-Phenyl-2-propenal]
  Ergebnisse von Konservierungstests: gut konserviert
